In patent US20230373985A1 (Origenis Gmbh, priority 2020, published 2023):

Columns and labels:
[1] = target: T1, wt human JAK1, catalytic site (Homo sapiens, UniProt P23458); assay: HTRF KinEASE assay, JAK1; type: biochemical; conditions: 2.5 μM ATP; read-out: IC50, Activity Toward JAK1
T1 construct: wt human JAK1, catalytic site; purchased ThermoFisher
In short: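 Compounds in DMSO dilution were mixed with kinase, biotin-TK substrate and ATP and reacted for ≥30 min at room temperature. Detection reagents (antibody, streptavidin-XL665) were read 60 min later as HTRF, with emission ratios analysed per KinEASE protocol.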

[2] = target: T2, wt human NUAK1, full length (Homo sapiens, UniProt O60285); assay: TR-FRET LanthaScreen Eu Kinase Binding Assay, NUAK1; conditions: read-out: IC50, Activity Toward NUAK1
T2 construct: 8 nM wt human NUAK1, full length (ThermoFisher/USA); purchased ThermoFisher
T2 sequence (O60285 1-661): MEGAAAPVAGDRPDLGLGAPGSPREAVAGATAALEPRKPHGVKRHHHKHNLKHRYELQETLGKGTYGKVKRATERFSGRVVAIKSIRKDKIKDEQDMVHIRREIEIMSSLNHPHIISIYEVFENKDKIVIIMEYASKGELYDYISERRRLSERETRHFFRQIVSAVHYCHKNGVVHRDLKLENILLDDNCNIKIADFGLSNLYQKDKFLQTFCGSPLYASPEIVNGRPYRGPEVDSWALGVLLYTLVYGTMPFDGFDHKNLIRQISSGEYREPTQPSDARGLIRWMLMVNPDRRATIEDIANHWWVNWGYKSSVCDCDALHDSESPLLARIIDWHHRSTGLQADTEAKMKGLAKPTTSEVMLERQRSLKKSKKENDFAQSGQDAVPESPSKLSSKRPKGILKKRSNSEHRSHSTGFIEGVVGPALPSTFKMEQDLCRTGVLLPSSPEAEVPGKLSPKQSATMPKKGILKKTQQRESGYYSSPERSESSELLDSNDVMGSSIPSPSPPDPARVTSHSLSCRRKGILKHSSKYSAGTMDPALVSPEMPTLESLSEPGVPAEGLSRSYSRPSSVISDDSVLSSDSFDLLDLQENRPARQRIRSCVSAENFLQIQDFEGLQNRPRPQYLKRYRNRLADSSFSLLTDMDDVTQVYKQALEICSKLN
In short: (§1)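 NUAK1: 8 nM enzyme, 2 nM Eu-anti-His antibody, 5 nM Tracer 236. LRRK2 wt/G2019S: 5 nM enzyme, 2 nM Eu-anti-GST antibody, 10 nM Tracer 236. Kinase Buffer A, 1 h RT, TR-FRET ratio.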

[3] = target: T3, wt human TYK2, catalytic site (Homo sapiens, UniProt P29597); assay: HTRF KinEASE assay, TYK2; type: biochemical; conditions: 1 μM ATP; read-out: IC50, Activity Toward TYK2
T3 construct: wt human TYK2, catalytic site; purchased SignalChem
T3 sequence (P29597 897-1176 limits assumed): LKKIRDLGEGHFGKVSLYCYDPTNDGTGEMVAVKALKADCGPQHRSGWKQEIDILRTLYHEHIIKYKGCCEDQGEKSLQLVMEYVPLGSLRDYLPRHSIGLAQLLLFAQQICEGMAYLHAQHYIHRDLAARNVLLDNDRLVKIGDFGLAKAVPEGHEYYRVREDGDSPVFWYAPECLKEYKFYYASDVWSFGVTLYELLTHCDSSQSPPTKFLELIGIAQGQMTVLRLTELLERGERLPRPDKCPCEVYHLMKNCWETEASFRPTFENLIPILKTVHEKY
In short: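 Kinase reaction run at room temperature for at least 30 min: 2 nM TYK2 with 1 μM ATP, or 1 nM JAK2 with 100 μM ATP, each with 1 μM biotin-TK substrate. Phosphorylation detected by HTRF (60 min antibody/XL665) and evaluated from emission ratios.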

[4] = target: T4, G2019S human LRRK2, catalytic site (Homo sapiens, UniProt Q5S007, G2019S); assay: TR-FRET LanthaScreen Eu Kinase Binding Assay, LRRK2 G2019S; conditions: LRRK2(G2019); one range stated for wt and G2019; read-out: IC50, Activity Toward LRRK2(G2019)
T4 construct: G2019S human LRRK2, catalytic site; purchased ThermoFisher
In short: as §1

[5] = target: T5, wt human LRRK2, catalytic site (Homo sapiens, UniProt Q5S007); assay: TR-FRET LanthaScreen Eu Kinase Binding Assay, LRRK2 wt; conditions: one range stated for wt and G2019, read-out: IC50, Activity Toward LRRK2(Wt)
T5 construct: 5 nM wt human LRRK2, catalytic site; purchased ThermoFisher
In short: as §1

T1 sequence (P23458 875-1153 limits assumed): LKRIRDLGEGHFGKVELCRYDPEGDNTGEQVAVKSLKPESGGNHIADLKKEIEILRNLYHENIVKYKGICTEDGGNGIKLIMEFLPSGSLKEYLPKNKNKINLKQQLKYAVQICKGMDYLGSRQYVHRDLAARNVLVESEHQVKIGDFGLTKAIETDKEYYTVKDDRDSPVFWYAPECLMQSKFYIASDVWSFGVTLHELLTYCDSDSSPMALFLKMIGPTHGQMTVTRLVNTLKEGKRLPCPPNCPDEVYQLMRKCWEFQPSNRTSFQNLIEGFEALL
T4 sequence (Q5S007 970-2527 G2019S limits assumed): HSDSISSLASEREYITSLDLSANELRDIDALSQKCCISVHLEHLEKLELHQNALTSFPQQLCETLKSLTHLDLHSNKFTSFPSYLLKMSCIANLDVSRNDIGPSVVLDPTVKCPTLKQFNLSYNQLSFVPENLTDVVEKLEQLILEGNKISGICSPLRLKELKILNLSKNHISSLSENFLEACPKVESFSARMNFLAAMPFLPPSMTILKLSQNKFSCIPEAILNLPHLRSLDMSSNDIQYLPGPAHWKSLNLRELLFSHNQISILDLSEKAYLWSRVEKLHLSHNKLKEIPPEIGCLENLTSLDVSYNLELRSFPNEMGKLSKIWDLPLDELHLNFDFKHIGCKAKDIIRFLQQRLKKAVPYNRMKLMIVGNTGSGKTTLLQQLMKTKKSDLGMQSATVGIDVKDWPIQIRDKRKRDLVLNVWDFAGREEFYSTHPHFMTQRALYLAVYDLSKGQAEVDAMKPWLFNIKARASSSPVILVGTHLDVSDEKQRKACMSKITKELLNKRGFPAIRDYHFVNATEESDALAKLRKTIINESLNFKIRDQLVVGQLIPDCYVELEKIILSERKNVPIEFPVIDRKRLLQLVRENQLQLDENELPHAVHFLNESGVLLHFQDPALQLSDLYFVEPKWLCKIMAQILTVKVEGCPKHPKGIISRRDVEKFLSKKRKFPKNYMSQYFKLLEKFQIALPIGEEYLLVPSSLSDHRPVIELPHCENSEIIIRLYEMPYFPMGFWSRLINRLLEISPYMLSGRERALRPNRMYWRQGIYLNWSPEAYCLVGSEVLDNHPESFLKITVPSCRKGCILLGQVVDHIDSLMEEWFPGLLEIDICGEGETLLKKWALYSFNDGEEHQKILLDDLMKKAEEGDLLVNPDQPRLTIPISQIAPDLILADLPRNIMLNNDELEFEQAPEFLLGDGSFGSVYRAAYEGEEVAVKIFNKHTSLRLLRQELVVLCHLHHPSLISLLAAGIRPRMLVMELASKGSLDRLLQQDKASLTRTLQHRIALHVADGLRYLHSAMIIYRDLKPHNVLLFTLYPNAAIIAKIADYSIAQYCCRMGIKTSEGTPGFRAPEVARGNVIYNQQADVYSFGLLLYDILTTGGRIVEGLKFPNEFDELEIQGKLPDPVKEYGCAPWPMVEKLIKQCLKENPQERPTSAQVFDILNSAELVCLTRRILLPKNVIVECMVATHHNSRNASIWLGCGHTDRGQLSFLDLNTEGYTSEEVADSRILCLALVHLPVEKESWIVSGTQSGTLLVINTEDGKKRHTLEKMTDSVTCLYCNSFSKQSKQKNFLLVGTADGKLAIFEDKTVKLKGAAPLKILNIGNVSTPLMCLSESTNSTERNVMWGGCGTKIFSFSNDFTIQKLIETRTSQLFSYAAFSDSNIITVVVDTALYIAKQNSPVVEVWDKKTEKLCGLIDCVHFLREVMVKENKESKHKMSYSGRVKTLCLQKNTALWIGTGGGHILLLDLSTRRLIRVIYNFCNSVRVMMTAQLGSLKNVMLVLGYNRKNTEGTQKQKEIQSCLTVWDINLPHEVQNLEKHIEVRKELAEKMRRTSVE
T5 sequence (Q5S007 970-2527 limits assumed): as the sequence (Q5S007 970-2527 G2019S limits assumed) above, with S1050G counted along it

Row | IC50 [1] [nM] | IC50 [2] [nM] | IC50 [3] [nM] | IC50 [4] [nM] | IC50 [5] [nM] | SMILES
1 | 100 to 1000 | 100 to 1000 | 10 to 100 | 100 to 1000 | 100 to 1000 | NC(=O)c1nn(-c2c(Cl)cccc2Cl)cc1Nc1ccc(C(=O)N2CC[C@@H](N3CCCC3)C2)cc1 [compound 331, (R)-4-((4-([1,3′-bipyrrolidine]-1′-carbonyl)phenyl)amino)-1-(2,6-dichlorophenyl)-1H-pyrazole-3-carboxamide]
2 | 10 to 100 | 100 to 1000 | 10 to 100 | 100 to 1000 | 100 to 1000 | CN1CCC(NC(=O)c2ccc(Nc3cn(-c4c(Cl)cccc4Cl)nc3C(N)=O)cc2)CC1 [compound 31, 1-(2,6-dichlorophenyl)-4-((4-((1-methylpiperidin-4-yl)carbamoyl)phenyl)amino)-1H-pyrazole-3-carboxamide]
3 | 10 to 100 | 100 to 1000 | 10 to 100 | 10 to 100 | 10 to 100 | CN1CCC(NC(=O)c2ccc(Nc3cn(-c4c(F)cccc4Cl)nc3C(N)=O)cc2)CC1 [compound 35, 1-(2-chloro-6-fluorophenyl)-4-((4-((1-methylpiperidin-4-yl)carbamoyl)phenyl)amino)-1H-pyrazole-3-carboxamide]
4 | 100 to 1000 | 100 to 1000 | 10 to 100 | 100 to 1000 | 100 to 1000 | Cc1ccnnc1-c1ccc(Nc2cn(-c3c(F)cccc3F)nc2C(N)=O)cc1 [compound 296, 1-(2,6-difluorophenyl)-4-((4-(4-methylpyridazin-3-yl)phenyl)amino)-1H-pyrazole-3-carboxamide]
5 | 10 to 100 | 100 to 1000 | 10 to 100 | 10 to 100 | 10 to 100 | NC(=O)c1nn(-c2c(F)cccc2Cl)cc1Nc1ccc(-n2ncc3c2CCOC3)cc1 [compound 208, 1-(2-chloro-6-fluorophenyll)-4-((4-(6,7-dihydropyrano[4,3-c]pyrazol-1(4H)-yl)phenyl)amino)-1H-pyrazole-3-carboxamide]
6 | 100 to 1000 | 100 to 1000 | 10 to 100 | 100 to 1000 | 100 to 1000 | Cn1nncc1-c1ccc(Nc2cn(-c3c(Cl)cccc3Cl)nc2C(N)=O)cc1 [compound 48, 1-(2,6-dichlorophenyl)-4-((4-(1-methyl-1H-1,2,3-triazol-5-yl)phenyl)amino)-1H-pyrazole-3-carboxamide]
7 | 10 to 100 | 100 to 1000 | 10 to 100 | 100 to 1000 | 100 to 1000 | Cc1ccn(-c2ccc(Nc3cn(-c4c(F)cccc4Cl)nc3C(N)=O)cc2)n1 [compound 232, 1-(2-chloro-6-fluorophenyl)-4-((4-(3-methyl-1H-pyrazol-1-yl)phenyl)amino)-1H-pyrazole-3-carboxamide]
8 | 10 to 100 | 100 to 1000 | 10 to 100 | 100 to 1000 | 100 to 1000 | CN(C)[C@@H]1CCN(C(=O)c2ccc(Nc3cn(-c4c(Cl)cccc4Cl)nc3C(N)=O)cc2)C1 [compound 313, (R)-1-(2,6-dichlorophenyl)-4-((4-(3-(dimethylamino)pyrrolidine-1-carbonyl)phenyl)amino)-1H-pyrazole-3-carboxamide]
9 | 10 to 100 | 100 to 1000 | 10 to 100 | 100 to 1000 | 100 to 1000 | CN(C)C1CCN(C(=O)c2ccc(Nc3cn(-c4c(Cl)cccc4Cl)nc3C(N)=O)cc2)CC1 [compound 423, 1-(2,6-dichlorophenyl)-4-((4-(4-(dimethylamino)piperidine-1-carbonyl)phenyl)amino)-1H-pyrazole-3-carboxamide]
10 | 10 to 100 | 100 to 1000 | 10 to 100 | 100 to 1000 | 100 to 1000 | CCN(CC)CCNC(=O)c1ccc(Nc2cn(-c3c(Cl)cccc3Cl)nc2C(N)=O)cc1 [compound 422, 1-(2,6-dichlorophenyl)-4-((4-((2-(diethylamino)ethyl)carbamoyl)phenyl)amino)-1H-pyrazole-3-carboxamide]

More lines, now with the values behind:

Row | SMILES | IC50 [1] [nM] | IC50 [2] [nM] | IC50 [3] [nM] | IC50 [4] [nM] | IC50 [5] [nM]
11 | CCc1ccnn1-c1ccc(Nc2cn(-c3c(F)cccc3Cl)nc2C(N)=O)cc1 [compound 286, 1-(2-chloro-6-fluorophenyl)-4-((4-(5-ethyl-1H-pyrazol-1-yl)phenyl)amino)-1H-pyrazole-3-carboxamide] | 100 to 1000 | 100 to 1000 | 10 to 100 | 100 to 1000 | 100 to 1000
12 | NC(=O)c1nn(-c2c(Cl)cccc2Cl)cc1Nc1ccc(C(=O)N2CCC(N)C2)cc1 (stereo not shown) [compound 317, 4-((4-(3-aminopyrrolidine-1-carbonyl)phenyl)amino)-1-(2,6-dichlorophenyl)-1H-pyrazole-3-carboxamide] | 10 to 100 | 100 to 1000 | 10 to 100 | 100 to 1000 | 100 to 1000
13 | Cn1cc(C(F)(F)F)nc1-c1ccc(Nc2cn(-c3c(F)cccc3F)nc2C(N)=O)cc1 [compound 308, 1-(2,6-difluorophenyl)-4-((4-(1-methyl-4-(trifluoromethyl)-1H-imidazol-2-yl)phenyl)amino)-1H-pyrazole-3-carboxamide] | 10 to 100 | 100 to 1000 | 10 to 100 | 100 to 1000 | 100 to 1000
14 | NC(=O)c1nn(-c2c(F)cccc2Cl)cc1Nc1ccc(C(=O)N2CCCCC2)cc1 [compound 228, 1-(2-chloro-6-fluorophenyl)-4-((4-(piperidine-1-carbonyl)phenyl)amino)-1H-pyrazole-3-carboxamide] | 10 to 100 | 100 to 1000 | 10 to 100 | 100 to 1000 | 100 to 1000
15 | NC(=O)c1nn(-c2c(Cl)cccc2Cl)cc1Nc1ccc(C(=O)N2CCC(N3CCCC3)C2)cc1 (stereo not shown) [compound 249, 4-((4-([1,3′-bipyrrolidine]-1′-carbonyl)phenyl)amino)-1-(2,6-dichlorophenyl)-1H-pyrazole-3-carboxamide] | 100 to 1000 | 100 to 1000 | < 10 | 100 to 1000 | 100 to 1000
16 | N#Cc1cn(CCO)c(-c2ccc(Nc3cn(-c4c(Cl)cccc4Cl)nc3C(N)=O)cc2)n1 [compound 361, 4-((4-(4-cyano-1-(2-hydroxyethyl)-1H-imidazol-2-yl)phenyl)amino)-1-(2,6-dichlorophenyl)-1H-pyrazole-3-carboxamide] | 10 to 100 | 100 to 1000 | < 10 | 100 to 1000 | 100 to 1000
17 | CN1CCC(Oc2ccc(Nc3cn(-c4c(F)cccc4F)nc3C(N)=O)cc2)CC1 [compound 288, 1-(2,6-difluorophenyl)-4-((4-((1-methylpiperidin-4-yl)oxy)phenyl)amino)-1H-pyrazole-3-carboxamide] | 100 to 1000 | 10 to 100 | 10 to 100 | 100 to 1000 | 100 to 1000
